Substitutions are numbered along the chain they refer to. pIC50: −log10 of the molar value. Read-outs that look alike come from different tables or passages of the source.
Tests used:
[1] = target: T1, Val509lleArg499HisVal420lle mutant (VRV mutant) (Mus musculus, UniProt Q05769, R499H/V420I/V509I)
T1 sequence (Q05769 18-604 V420I/R499H/V509I): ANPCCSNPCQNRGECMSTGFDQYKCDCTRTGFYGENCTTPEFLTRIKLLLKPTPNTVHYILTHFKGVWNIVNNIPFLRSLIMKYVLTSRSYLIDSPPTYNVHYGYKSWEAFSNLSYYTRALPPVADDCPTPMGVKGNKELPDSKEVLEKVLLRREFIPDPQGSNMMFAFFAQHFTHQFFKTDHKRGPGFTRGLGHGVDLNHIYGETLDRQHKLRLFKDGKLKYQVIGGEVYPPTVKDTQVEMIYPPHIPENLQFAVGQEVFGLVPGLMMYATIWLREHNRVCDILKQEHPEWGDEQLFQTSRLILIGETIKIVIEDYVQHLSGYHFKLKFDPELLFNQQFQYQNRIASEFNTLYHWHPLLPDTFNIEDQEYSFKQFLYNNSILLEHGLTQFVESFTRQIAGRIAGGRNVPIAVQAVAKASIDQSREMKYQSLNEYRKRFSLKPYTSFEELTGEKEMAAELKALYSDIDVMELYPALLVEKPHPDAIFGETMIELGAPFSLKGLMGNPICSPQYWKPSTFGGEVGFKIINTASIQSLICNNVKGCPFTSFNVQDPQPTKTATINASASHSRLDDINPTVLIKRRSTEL

[2] = target: T2, murine COX-2 mutant Tyr341Ala (Mus musculus, UniProt Q05769, Y341A)
T2 sequence (Q05769 18-604 Y341A): T1 sequence (Q05769 18-604 V420I/R499H/V509I) with Y324A, I403V, H482R, I492V

ovine COX-1 = target: T3, ovine COX-1 (Ovis aries, UniProt P05979); test: TLC assay of cyclooxygenase inhibition, purified ovine COX-1; type: biochemical; conditions: Table 2, amide derivatives; ovine COX-1 (44 nM), 20 min, 1-14C-AA at 37°C for 30 sec
T3 construct: COX-1 was purified from ram seminal vesicles obtained from Oxford Biomedical Research, Inc; tissue Oxford Biomedical Research, Inc. (Oxford, Michigan); host or cells: ram seminal vesicles
T3 sequence (P05979 25-600): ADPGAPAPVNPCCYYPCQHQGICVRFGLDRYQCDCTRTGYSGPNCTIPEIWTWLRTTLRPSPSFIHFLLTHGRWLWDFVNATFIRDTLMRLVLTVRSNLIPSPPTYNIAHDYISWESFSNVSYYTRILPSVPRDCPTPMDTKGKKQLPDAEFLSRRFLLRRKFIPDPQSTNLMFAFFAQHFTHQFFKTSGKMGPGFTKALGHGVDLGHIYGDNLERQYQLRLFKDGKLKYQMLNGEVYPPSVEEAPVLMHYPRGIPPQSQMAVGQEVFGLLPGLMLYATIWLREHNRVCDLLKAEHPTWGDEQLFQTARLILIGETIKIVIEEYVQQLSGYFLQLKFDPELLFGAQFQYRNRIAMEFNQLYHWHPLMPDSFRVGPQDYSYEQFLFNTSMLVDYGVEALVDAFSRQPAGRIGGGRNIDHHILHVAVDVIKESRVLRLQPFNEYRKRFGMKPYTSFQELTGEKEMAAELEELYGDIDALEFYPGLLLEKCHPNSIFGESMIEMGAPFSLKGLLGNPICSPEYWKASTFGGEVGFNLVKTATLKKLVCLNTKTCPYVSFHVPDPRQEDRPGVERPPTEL

COX-1 = COX-1 (Homo sapiens, UniProt P23219); conditions: background / literature statement; cited from earlier work
COX-2 [3] = target: T4, COX-2 (Homo sapiens, UniProt P35354); conditions: background / literature statement; cited from earlier work
T4 sequence (P35354 18-604): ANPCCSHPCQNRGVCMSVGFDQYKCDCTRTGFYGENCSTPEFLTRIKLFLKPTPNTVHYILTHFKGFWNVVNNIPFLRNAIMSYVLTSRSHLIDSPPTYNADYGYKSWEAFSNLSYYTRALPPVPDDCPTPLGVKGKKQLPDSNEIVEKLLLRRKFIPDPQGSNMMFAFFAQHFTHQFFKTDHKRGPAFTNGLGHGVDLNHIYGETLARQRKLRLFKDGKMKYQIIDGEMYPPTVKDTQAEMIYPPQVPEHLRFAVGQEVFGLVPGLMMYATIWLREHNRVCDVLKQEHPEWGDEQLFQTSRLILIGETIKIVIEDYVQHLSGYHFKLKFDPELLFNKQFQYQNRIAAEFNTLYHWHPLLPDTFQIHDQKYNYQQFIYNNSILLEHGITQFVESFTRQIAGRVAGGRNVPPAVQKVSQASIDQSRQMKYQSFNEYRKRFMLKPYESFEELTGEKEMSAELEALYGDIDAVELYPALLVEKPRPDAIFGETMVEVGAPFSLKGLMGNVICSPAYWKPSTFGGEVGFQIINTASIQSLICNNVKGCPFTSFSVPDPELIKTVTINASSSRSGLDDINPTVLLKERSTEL

rat foot pad edema = test: Rat foot pad edema model (carrageenan); type: in vivo, male Sprague-Dawley rats; conditions: 2 mg/kg orally, corrected for 0.1 mL injection volume
Method: Rats were injected with carrageenan, which triggers a rapid edema (swelling) within 3 hours that can be quantitatively measured by volume displacement.
In these experiments, the carrageenan that was injected was in 0.1 mL of aqueous saline so that 0.1 mL volume increase was due to the injection alone. […] More specifically, male Sprague-Dawley rats (150 g) received a subplantar injection of carrageenan (0.1 mL of a 1% suspension of carrageenan in sterile aqueous saline) into the right hind footpad while mildly anesthetized with methoxyflurane. […] The ipsilateral footpad volume (mL) was measured with a water displacement plethysmometer at time = 3 hours post-injection and compared to the time = 0 pre-injection paw volume for edema calculations.

COX-2 [4] = target: T4, COX-2; test: TLC assay of cyclooxygenase inhibition, purified human COX-2; type: biochemical

Sequence of COX-1 (P23219 24-599): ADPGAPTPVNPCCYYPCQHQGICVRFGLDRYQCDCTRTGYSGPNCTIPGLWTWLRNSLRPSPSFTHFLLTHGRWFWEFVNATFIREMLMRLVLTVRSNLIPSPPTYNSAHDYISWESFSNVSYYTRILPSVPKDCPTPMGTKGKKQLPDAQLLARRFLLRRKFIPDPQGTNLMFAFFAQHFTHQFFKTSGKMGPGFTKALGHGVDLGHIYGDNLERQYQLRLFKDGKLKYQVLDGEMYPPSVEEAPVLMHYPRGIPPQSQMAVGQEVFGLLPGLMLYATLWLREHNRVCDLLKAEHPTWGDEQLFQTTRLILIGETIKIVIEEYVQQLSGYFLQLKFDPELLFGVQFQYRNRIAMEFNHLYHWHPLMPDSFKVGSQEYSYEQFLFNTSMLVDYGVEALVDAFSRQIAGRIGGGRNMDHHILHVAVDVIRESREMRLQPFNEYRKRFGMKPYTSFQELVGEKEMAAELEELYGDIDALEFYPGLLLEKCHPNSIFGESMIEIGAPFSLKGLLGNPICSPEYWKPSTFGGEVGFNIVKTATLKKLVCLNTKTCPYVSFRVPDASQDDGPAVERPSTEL

For `COc1ccc2c(c1)c(CC(=O)NCCc1ccccc1)c(C)n2C(=O)c1ccc(Cl)cc1` [Compound 38, Indomethacin-N-(2-phenethyl) amide], the “inhibition of triple mutant VRV” value [1] was “resistant to inhibition” and the “inhibition of Tyr341Ala mutant” value [2] was “resistant to inhibition”.
With `COc1ccc2c(c1)c(CC(=O)Nc1ccc(F)cc1)c(C)n2C(=O)c1ccc(Cl)cc1` [Compound 39, Indomethacin-N-(4-fluorophenyl) amide] the IC50 (ovine COX-1) was > 66 µM.
In the case of `CC1=C(CC(=O)O)c2cc(F)ccc2/C1=C\c1ccc(S(C)(=O)=O)cc1` [sulindac sulfone], the “inhibition of COX-1 (in words)” value (COX-1) is given as “does not inhibit” and the “inhibition of COX-2 (in words)” value (COX-2 [3]) is given as “does not inhibit”.
In the case of `COc1ccc2c(c1)c(CC(=O)O)c(C)n2C(=O)c1ccc(Cl)cc1` [Compound 1, Indomethacin], the reduction in inflammation (rat foot pad edema) was “comparable reduction in inflammation”.
For `CCn1nccc1NC(=O)Cc1c(C)n(C(=O)c2ccc(Cl)cc2)c2ccc(OC)cc12` [Compound 49, Indomethacin-N-5-((1-ethyl)pyrazolo) amide], the pIC50 (COX-2 [4]) was 6.15 and the Selectivity (COX-2 [4]) was > 94.
For `COc1ccc2c(c1)c(CC(=O)OCCC1CCCCC1)c(C)n2C(=O)c1ccc(Cl)cc1` [Compound 10, Indomethacin cyclohexylethyl ester], the “IC value at which measurement of COX-2 inhibition was stopped” value (COX-2 [4]; tertiary amides) was 33.
For `COc1ccc2c(c1)c(CC(=O)Nc1cccnc1)c(C)n2C(=O)c1ccc(Cl)cc1` [Compound 47, Indomethacin-N-(3-pyridyl) amide], the IC50 (ovine COX-1) was > 66 µM.
Work on “Indomethacin 3-pyridyl ester [Compound 24]” yielded a Selectivity (COX-2 [4]) of 50.
With `Cc1nc(-c2ccccc2)c(-c2ccc(S(N)(=O)=O)cc2)o1` [2-methyl-4-phenyl-5-sulfonamidophenyl oxazole, reference compound] the Selectivity (COX-2 [4]; Table 1, ester derivatives, Ratio of IC50 (COX-1):IC50 (COX-2)) was > 1100.
